Assay results: patent publication US7883713B2, “Topical application of thiazolyl amides” (AiCuris GmbH & Co. KG, priority 2001, dated 2011)

Key:
HSV-2 [1] = assay: Zosteriform spread model, percutaneous HSV-2 infection; format: in vivo, hairless mice (C3H/TifBom-hr); conditions: for efficacy of topical treatment, in words: 2% by weight suspension in 30% isopropyl myristate, 70% ethanol; for Pathology index (cumulative): day 0 to day 21, 10 animals
Procedure: To form a 2% by weight suspension, the active ingredients are mixed with 30% by weight isopropyl myristate/70% by weight of ethanol and sonified in a glass tube in an ultrasonic bath at 15° C. for 15 min.
To produce the ointment preparation, wool alcohol ointment complying with DAB 9 is employed. The active ingredient is suspended in a molten mixture of 0.5 parts by weight of cetyl stearyl alcohol (quality complying with DAB 9), 6 parts by weight of wool wax alcohol (quality complying with DAB 9) and 93.5 parts by weight of white petrolatum (quality complying with DAB 9). The mixture is stirred while cooling to room temperature (about 21° C.).
To produce a so-called “PEG isogel” preparation, the active ingredient is suspended or dissolved in the melt a mixture of lower molecular weight polyethylene glycol (PEG) and higher molecular weight PEG.
A further gel preparation employed is a polyacrylate gel (so-called “carbogel”) which consists of 1 part by weight of Carbopol 974 P NF (manufacturer BF Goodrich, USA), […], 5 part by weight of 5% by weight (m/m) sodium hydroxide solution and 89 parts by weight of water. The preparation is produced by rubbing the Carbopol with the isopropanol, adding the active ingredient, and dispersing the mixture in water. The sodium hydroxide solution is added stepwise with stirring. A gel is formed.
6-week old female hairless mice (C3H/TifBom-hr) are purchased from a commercial breeder (M&B A/S, Denmark) and infected with HSV one week later. The animals are anesthetized with diethyl ether (Merck) in a leakproof glass vessel. For the dermal infection, the skin on the right flank or in the neck region of the animal is scratched 10× crosswise with a sterile needle (0.6×25 mm). The skin pretreated in this way is inoculated with 10 μl of virus suspension (1×10^6 pfu HSV-2G; 1.5×10^6 p fu HSV-lwalki). The animals are inspected each day, and the pathology index is determined by means of the following scale: 0: no visible signs of infection, 1: blistering, 2: slight spread in the dermatome (shingles), 3: large areas affected (shingles), 4: confluent shingles bands, 5: paralysis of the extremities, 6: death. The particular pathology index of the group on the particular day is calculated by forming the average for all the animals in the group. The cumulative pathology index is calculated by totalling the pathology indices for individual days. The infection leads to death of 90-100% of the untreated animals due to a generalized infection with prominent central nervous symptoms an average of between 5 and 8 days. Moribund animals are euthanized. […]

HSV-1 = assay: Ocular herpes model, HSV-1 infection; format: in vivo, mice (BALB/cABom); conditions: for number of survivors of 10 infected animals: HSV-1, day 16 after infection; for number of survivors of 10 infected animals / Pathology index HSV-1 infection (cumulative): topical ophthalmic 2% by weight suspension 5x a day, day 0 to day 4; for Pathology index HSV-1 infection (cumulative): day 0 to day 16, 10 animals; for efficacy of topical treatment (eye drops), in words: ocular HSV infection, efficacy applies to HSV-1
Procedure: (§1) To form a 2% by weight suspension, the active ingredients are mixed with Liquifilm eyedrops (Allergan, Ettlingen, Germany) (1 ml containing polyvinyl alcohol 14 mg, and as excipient chlorobutanol ½ H2O 5.25 mg, sodium chloride) and sonified in a glass tube in an ultrasonic bath at 15° C. for 15 min.
(§2) 6-week old female mice, strain BALB/cABom (weight 19 g) are purchased from a commercial breeder (M&B A/S, Denmark) and infected with HSV one week later. The animals are anesthetized in a leakproof glass vessel with diethyl ether (Merck). For the ocular infection, the cornea of the right eye is lightly scratched three times horizontally and three times vertically with a sterile needle (0.4×20 mm). The cornea pretreated in this way is inoculated with 5 μl of virus suspension (5×10^7 pfu HSV-2G, 7.5×10^7 pfu HSV-lwalki). The infected animals are checked each day and examined for signs of an HSV infection (blepharitis, keratitis, encephalitis). The pathology index is set at 1 for affected animals, and the pathology index is set at 0 for symptom-free animals. The particular pathology index of the group on the particular day is calculated by summation for all the animals in the group. The cumulative pathology index is calculated by totalling the pathology indices on individual days. The infection leads to the death of 90-100% of untreated animals due to a generalized infection with prominent central nervous symptoms an average of between 5 and 8 days. Moribund animals are euthanized. The treatment takes place starting 3 h after the infection 5× a day for 5 days by instilling 5 μl of a 2% by weight active ingredient suspension in Liquifilm© eye drops (Allergan, Ettlingen, Germany) (1 ml containing polyvinyl alcohol 14 mg, and as excipient chlorobutanol ½ H2O 5.25 mg, sodium chloride) into the infected right eye of the animal.

HSV-2 [2] = assay: Ocular herpes model, HSV-2 infection; format: in vivo, mice (BALB/cABom); conditions: for number of survivors of 10 infected animals: HSV-2, day 16 after infection; for number of survivors of 10 infected animals / Pathology index HSV-2 infection (cumulative): topical ophthalmic 2% by weight suspension 5x a day, day 0 to day 4; for Pathology index HSV-2 infection (cumulative): day 0 to day 16, 10 animals; for efficacy of topical treatment (eye drops), in words: ocular HSV infection, efficacy applies to HSV-2
Procedure: as §1, §2

[3] = HSV-2, right flank, 2% by weight suspension in 30% isopropyl myristate/70% ethanol on skin 2x a day, day 0 to day 4

SMILES	efficacy of topical treatment, in words (HSV-2 [1]; HSV-2, right flank)	Pathology index (cumulative) (HSV-2 [1]; [3])	number of survivors of 10 infected animals (HSV-1)	Pathology index HSV-1 infection (cumulative) (HSV-1)	efficacy of topical treatment (eye drops), in words (HSV-1)	number of survivors of 10 infected animals (HSV-2 [2])	Pathology index HSV-2 infection (cumulative) (HSV-2 [2])	efficacy of topical treatment (eye drops), in words (HSV-2 [2])	effect of short treatment on infection, in words (HSV-2 [1]; HSV-2G, neck region, 2% by weight PEG isogel 2x a day for 2 days (4 treatments))	Pathology index (cumulative) (HSV-2 [1]; HSV-2G, neck region, 2% by weight PEG isogel on skin 2x a day, day 0 to day 1)	efficacy of topical treatment with various formulations, in words (HSV-2 [1]; HSV-2G, neck region, formulations with 3% by weight active ingredient)
Cc1nc(N(C)C(=O)Cc2ccc(-c3ccccc3)cc2)sc1S(N)(=O)=O [N-[5-Aminosulfonyl)-4-methyl-1,3-thiazol-2-yl]-2-[1,1′-biphenyl]-4-yl-N-methylacetamide]	extensive efficacy	7.9									
Cc1nc(N(C)C(=O)Cc2ccc(-c3ccccn3)cc2)sc1S(N)(=O)=O [N-[5-(Aminosulfonyl)-4-methyl-1,3-thiazol-2-yl]-N-methyl-2-[4-(2-pyridyl)phenyl]acetamide]	extensive efficacy	0.3	10	0	extensive efficacy	9	7	extensive efficacy	completely suppressed	0.3	extensive efficacy
Cc1nc(N(C)C(=O)Cc2ccc(-c3cc(F)ccc3F)cc2)sc1S(N)(=O)=O [N-[5-(Aminosulfonyl)-4-methyl-1,3-thiazol-2-yl]-2-(2′,5′-difluoro-1,1′-biphenyl-4-yl)-N-methylacetamide]			10	0	extensive efficacy	4	42	extensive efficacy			
Cc1nc(N(C)C(=O)Cc2ccc(-c3ccccc3F)cc2)sc1S(N)(=O)=O [N-[5-(Aminosulfonyl)-4-methyl-1,3-thiazol-2-yl]-2-(2′-fluoro[1,1′-biphenyl]-4-yl)-N-methylacetamide]	extensive efficacy	0.2									
Cc1nc(N(C)C(=O)Cc2ccc(-c3cccc(F)c3)cc2)sc1S(N)(=O)=O [N-[5-(aminosulfonyl)-4-methyl-1,3-thiazol-2-yl]-2-(3′-fluoro-1,1′-biphenyl-4-yl)-N-methylacetamide]	extensive efficacy	0.3									
Nc1nc2c(ncn2COCCO)c(=O)[nH]1 [Aciclovir, reference compound]			7	33		1	90				
